The source of these data is patent publication US4946957A, “Anti-tumor DC-52 derivatives” (Kyowa Hakko Kogyo Co., Ltd., priority 1986, dated 1990).

Read-outs that look alike come from different tables or passages of the source.

In data set [1] the test system is lymphocytic leukemia P-388. Put plainly: Anti-tumor activity against lymphocytic leukemia P-388 (i.p. implanted, single i.p. dose). The class given is in vivo, male CDF mice. Particulars: Mus musculus, P388, ip, read-out: T/C. The method, then: The experiment was carried out in the following manner.
Five male CDF mice each having a weight of about 22 g were used for each group as test animals, and 1×10^6 cells of lymphocytic leukemia P-388 tumor were implanted intraperitoneally into the test animals. After 24 hours, 0.2 ml of phosphate-buffered physiological saline containing a test compound was administered once intraperitoneally. The life-prolongingeffect of the compound was represented by T/C.

A short description of data set [2]: Acute toxicity (single i.p. administration). The following applies: mouse, in vivo, ip, ddy mice, method of Behrens-Kolber. As for the experimental part:
Five ddy mice were used for each group as test animals, and each test compound was administered once intraperitoneally to the respective groups of animals. LD50 was calculated from the death-rate of each group according to the method of Behrens-Kolber.

Another data set deals with a variety of bacteria. The following applies: in words; Japanese Published Unexamined Patent Application No. 170189/82; cited from earlier work.
For data set [3], the system named is lymphocytic leukemia P-388. The following applies: in words; Japanese Published Unexamined Patent Application No. 170189/82; cited from earlier work.
For data set [4] the following is noted: in words; Japanese Published Unexamined Patent Application No. 210086/84; cited from earlier work.
Setting [5] is: dose 12.5 mg/kg, single i.p., 24 hours after implantation of 1×10^6 P-388 cells, life-prolonging effect.
Where [6] appears, read: dose 25 mg/kg, single i.p., 24 hours after implantation of 1×10^6 P-388 cells, life-prolonging effect.

The LD50 is the dose at which mortality reaches 50%. On to `COc1ccc(Cl)c2c1C(CO)N1C(C#N)C3CC(C(=O)O)C(C1C2)N3C` (stereo not shown) [Compound 1], for which the response vs control in vivo at 12.5 mg/kg in data set [1] (24 h) came to 123%. Further, the LD50 in data set [2] is 50 mg/kg.
Regarding `COc1ccc(Cl)c2c1C1COC3C4CC(C(=O)O)C(C(C2)N13)N4C` (stereo not shown) [Compound 2], the response vs control in vivo at 12.5 mg/kg in data set [1] (setting [5]) stood at 140%.
`COc1ccc(Br)c2c1C(CO)N1C(C#N)C3CC(C(=O)O)C(C1C2)N3C` (stereo not shown) [Compound 3] showed an LD50 in data set [2] of 50 mg/kg.
Turning to `COc1ccc(Br)c2c1C1COC3C4CC(C(=O)O)C(C(C2)N13)N4C` (stereo not shown) [Compound 4], the response vs control in vivo at 12.5 mg/kg in data set [1] (setting [5]) amounted to 150%.
Take `COc1ccc(I)c2c1C(CO)N1C(C#N)C3CC(C(=O)O)C(C1C2)N3C` (stereo not shown) [Compound 5]: in data set [1] (24 h), the response vs control in vivo at 50 mg/kg came to 131%. This compound also gave an LD50 in data set [2] of 100 mg/kg.
With `COc1ccc(I)c2c1C1COC3C4CC(C(=O)O)C(C(C2)N13)N4C` (stereo not shown) [Compound 6], in data set [1] (setting [6]), the response vs control in vivo at 25 mg/kg came to 124%.
For `COc1ccc(C=O)c2c1C(CO)N1C(C#N)C3CC(C(=O)O)C(C1C2)N3C` (stereo not shown) [Compound 7], in data set [1] (dose 200 mg/kg, single i.p., 24 hours after implantation of 1×10^6 P-388 cells, life-prolonging effect), the response vs control in vivo at 200 mg/kg came to 138%.
Take `COc1ccc(C#N)c2c1C(CO)N1C(C#N)C3CC(C(=O)O)C(C1C2)N3C` (stereo not shown) [Compound 9]: the response vs control in vivo at 25 mg/kg in data set [1] (24 h) was 140%. The LD50 in data set [2] was > 100 mg/kg.
Take `COc1ccc(C#N)c2c1C1COC3C4CC(C(=O)O)C(C(C2)N13)N4C` (stereo not shown) [Compound 10]: the LD50 in data set [2] is > 50 mg/kg.
Consider `COc1ccc(O)c2c1C(CO)N1C(C#N)C3CC(C(=O)O)C(C1C2)N3C` (stereo not shown) [Compound 11], for which the response vs control in vivo at 25 mg/kg in data set [1] (setting [6]) was 142%.
Consider `COc1cccc2c1C1COC3C4CC(C(=O)O)C(C(C2)N13)N4C` (stereo not shown) [DC-52], for which the antibacterial activity entry in the data set on a variety of bacteria was “shows antibacterial activity against a variety of bacteria”. The “anti-tumor activity against lymphocytic leukemia P-388 and the like” value in data set [3] was “has anti-tumor activity against lymphocytic leukemia P-388 and the like”.
For `COc1cccc2c1C(CO)N1C(C#N)C3CC(C(=O)O)C(C1C2)N3C` (stereo not shown) [DX-52-1], in data set [4], the anti-tumor activity entry was “having anti-tumor activity”.
